{"source": "patent US9937192B2", "about": "“Combination therapy to treat mycobacterium diseases” (priority 2012, dated 2018)", "key": {"[1]": {"system": "M. tuberculosis", "test": "microbe, parasite or virus in culture", "type": "cell-based", "conditions": "Mycobacterium tuberculosis"}, "[2]": {"test": "Seven-Day Oral (Gavage) Toxicity and Toxicokinetics Study in Rats", "type": "in vivo, Crl:CD(SD) rats", "conditions": "male rats", "excerpt": "Seven-Day Oral (Gavage) Toxicity and Toxicokinetics Study in Rats\nCrl:CD(SD) rats were obtained from Charles River Laboratories of Stone Ridge, N.Y. The animals were laboratory bred and experimentally naïve. Rats were chosen because they are a species that is commonly used for nonclinical toxicity evaluations.\nAnimals received the test article or vehicle by oral gavage for 7 consecutive days and were terminated the day following completion of dosing. The first day of dosing was designated as Day 1 of the study. The animals were evaluated for changes in clinical signs, body weight, and other parameters as described below.\nThe vehicle and test article were administered by oral gavage once daily for 7 consecutive days at a dose volume of 10 mL/kg body weight for Group A and Groups B-D, respectively. The test article and vehicle were administered by oral gavage twice daily, approximately 8 hours apart, for 7 consecutive days at a dose volume of 10 mL/kg body weight for Group E and Group F, respectively. The actual volume administered to each animal was calculated and adjusted based on the most recent body weight of each animal.\nDuring the treatment period, daily cageside observations were made and recorded predose and postdose (following the first dose only). The postdosing observations made during treatment occurred at the following times based on Cmax/Tmax for the two compounds from previous studies:\nPrior to start of dosing, body weights were measured for randomization on Day 1. During the treatment, body weights were measured on Day 1 and Day 7. In addition, fasted body weights were measured prior to necropsy for calculation of organ/body weight ratios.\nThroughout the study, food consumption was measured daily starting 3 days prior to start of dosing.\nBlood samples for evaluation of hematology, coagulation, and serum chemistry parameters were collected from all animals from the retro-orbital plexus (under CO2/O2 anesthesia, for the main study animals) or jugular vein cannula (for the toxicokinetic animals) prior to necropsy. Due to residual heparin used to keep the cannulas patent for the toxicokinetic animals, coagulation samples from these rats, were not able to be analyzed. The animals were fasted overnight prior to blood collection. On the day of blood collection for clinical pathology analyses, the animals were not necropsied until after the blood was collected and the samples judged to be acceptable by the clinical pathology group.\nOn the 1st and 7th day of dosing, blood samples (approximately 0.5 mL/sample) were collected from the jugular vein cannula for all toxicokinetic animals at the timepoints listed below into K3EDTA-containing tubes. […] Prior to each collection, a small sample of blood (with heparin blocking solution) was removed from the cannula and discarded. A new syringe was placed on the cannula, and the protocol-required sample was taken. The syringe with the blood sample was removed, and a new syringe with saline attached to the cannula. Blood volume was replaced with an equal volume of saline and then blocking solution placed in the cannula. Each animal was returned to its cage until the next collection timepoint.\nFor all animals euthanized at scheduled necropsies, the kidneys, liver, and prostate gland were weighed. Following weighing, an approximate 1 gram sample of liver and kidney was weighed, transferred to Precellys 7 mL CK28 Tissue Homogenizing tubes (Cat. No. 0904-01), snap-frozen, and analyzed.\nFor all animals scheduled for the terminal necropsy, the kidneys, liver, and prostate were embedded in paraffin, sectioned and stained with hematoxylin and eosin for further examination by light microscopy. For Groups A, D, E, and F only, the remaining tissues listed above were embedded in paraffin, sectioned and stained with hematoxylin and eosin for further examination by light microscopy. […]"}, "[3]": {"system": "Non-Replicating (NRP) M. tuberculosis H37Ra", "test": "Non-replicating (NRP) M. tuberculosis H37Ra (luciferase) culture assay", "type": "cell-based", "conditions": "Mycobacterium tuberculosis, 336 h, read on day 14"}, "[4]": {"system": "intracellular M. tuberculosis in THP-1 cells", "test": "microbe, parasite or virus in culture", "type": "cell-based", "conditions": "Mycobacterium tuberculosis, H37RA"}, "[5]": {"system": "M. tuberculosis H37Rv", "test": "Minimum bactericidal concentration (MBC) assay", "type": "cell-based", "conditions": "for Log Reduction: vs untreated control"}, "[6]": {"conditions": "300 mg/kg twice a day vs controls treated twice a day"}}, "note": "Where a name gives a salt, the structure may show the parent alone. Read-outs that look alike come from different tables or passages of the source.", "data": [{"smiles": "CCNC(=O)Nc1nc2cc(-c3cnc(C(C)(C)O)nc3)c(F)c([C@H]3CCCO3)c2[nH]1", "note": "[Compound 23A, methanesulfonic acid salt of 1-ethyl-3-[6-fluoro-5-[2-(1-hydroxy-1-methyl-ethyl)pyrimidin-5-yl]-7-[(2R)-tetrahydrofuran-2-yl]-1H-benzimidazol-2-yl]urea]", "values": [{"measurement": "MIC", "setting": "[1]; GN9, Table 31, Mtb GN9, duplicate values, read-out: MIC", "result": 0.03, "unit": "µg/mL"}, {"measurement": "MIC", "setting": "[1]; H37RA, read-out: MIC, Broth", "result": 0.01, "unit": "µg/mL"}, {"measurement": "MIC", "setting": "[1]; H37RV, Table 33, M. tuberculosis strain H37Rv, read-out: MIC", "result": 0.125, "unit": "µg/mL"}, {"measurement": "MIC", "setting": "[1]; Table 32, […], duplicate values, read-out: MIC", "result": 0.125, "unit": "µg/mL"}, {"measurement": "MIC", "setting": "[1]; Table 33, M. tuberculosis strain AH13, read-out: MIC", "result": 0.5, "unit": "µg/mL"}, {"measurement": "MIC", "setting": "[1]; Table 33, M. tuberculosis strain BW9, read-out: MIC", "result": 0.125, "unit": "µg/mL"}, {"measurement": "MIC", "setting": "[1]; Table 33, M. tuberculosis strain H10460, read-out: MIC", "result": 0.5, "unit": "µg/mL"}, {"measurement": "MIC", "setting": "[1]; Table 33, M. tuberculosis strain MC19062, read-out: MIC", "result": 0.125, "unit": "µg/mL"}, {"measurement": "MIC", "setting": "[1]; Table 33, M. tuberculosis strain W10, read-out: MIC", "result": 0.125, "unit": "µg/mL"}, {"measurement": "AST", "setting": "[2]; [6]", "result": "statistically higher"}, {"measurement": "mean ALT", "setting": "[2]; [6]", "result": "statistically higher"}, {"measurement": "mean calcium ion concentration (CA)", "setting": "[2]; [6]", "result": "statistically lower"}, {"measurement": "dose levels at which no adverse toxicity was demonstrated", "setting": "[2]; 7 days oral gavage", "result": "≤ 600", "unit": "mg/kg/day"}, {"measurement": "adverse observations or effects on mean body weight", "setting": "[2]; 7 days oral gavage, all dose groups", "result": "No adverse observations or effects on mean body weight"}, {"measurement": "histopathological findings", "setting": "[2]; any dose regimen", "result": "No test article-related histopathological findings"}, {"measurement": "NOEL (No-Observable-Effect-Level)", "setting": "[2]; once a day for 7 days orally via gavage", "result": 100, "unit": "mg/kg"}, {"measurement": "exposures for different dosage levels", "setting": "[2]; toxicokinetics", "result": "dose related"}, {"measurement": "Mean food consumption", "setting": "[2]; twice daily 300 mg/kg, not considered adverse", "result": "reduced"}, {"measurement": "IC50", "setting": "[3]", "result": 1, "unit": "µg/mL"}, {"measurement": "IC50", "setting": "[4]; THP-1, 120 h, read-out: Mtb H37Ra in THP1 Cells (IC50)", "result": 0.03, "unit": "µg/mL"}, {"measurement": "MIC", "setting": "[4]; read-out: MIC, Macrophage Cells", "result": 0.03, "unit": "µg/mL"}, {"measurement": "Log cfu", "setting": "[5]; 0.039 ug/mL", "result": 5.36}, {"measurement": "Log Reduction", "setting": "[5]; 0.039 ug/mL", "result": 0.77}, {"measurement": "Log cfu", "setting": "[5]; 0.078 ug/mL", "result": 3.75}, {"measurement": "Log Reduction", "setting": "[5]; 0.078 ug/mL", "result": 2.38}, {"measurement": "Log cfu", "setting": "[5]; 0.156 ug/mL", "result": 1.04}, {"measurement": "Log Reduction", "setting": "[5]; 0.156 ug/mL", "result": 5.09}, {"measurement": "Log cfu", "setting": "[5]; 0.312 ug/mL", "result": 1.32}, {"measurement": "Log Reduction", "setting": "[5]; 0.312 ug/mL", "result": 4.81}, {"measurement": "Log cfu", "setting": "[5]; 0.625 ug/mL", "result": 1.04}, {"measurement": "Log Reduction", "setting": "[5]; 0.625 ug/mL", "result": 5.09}]}]}
